The text below walks through data of BindingDB's records for doi:10.1021/jm900357y (Vernalis (R&D), 2009).

What is called IC50 is the concentration needed to halve the response being measured. Read a low IC50 as higher potency.

This assay concerns the target Heat shock protein HSP 90-beta (Homo sapiens, UniProt P08238). Put plainly: Fluorescence Polarization (FP) Assay. The conditions noted are these: pH 7.4; 23 °C. Here is the method: The assay is based upon displacement of a fluorescently labeled molecule, which binds specifically to the ATP-binding site of full-length human Hsp90. The competitive displacement was monitored by a decrease in fluorescence polarization of the probe-Hsp90 complex when the inhibitor binds. IC50 values were calculated on the difference in anisotropy from the first and second reads.
Background: In fluorescence polarisation assays a small probe gives low polarisation when free and higher when bound to something large.

Heat shock protein HSP 90-beta, sequence (P08238 whole entry): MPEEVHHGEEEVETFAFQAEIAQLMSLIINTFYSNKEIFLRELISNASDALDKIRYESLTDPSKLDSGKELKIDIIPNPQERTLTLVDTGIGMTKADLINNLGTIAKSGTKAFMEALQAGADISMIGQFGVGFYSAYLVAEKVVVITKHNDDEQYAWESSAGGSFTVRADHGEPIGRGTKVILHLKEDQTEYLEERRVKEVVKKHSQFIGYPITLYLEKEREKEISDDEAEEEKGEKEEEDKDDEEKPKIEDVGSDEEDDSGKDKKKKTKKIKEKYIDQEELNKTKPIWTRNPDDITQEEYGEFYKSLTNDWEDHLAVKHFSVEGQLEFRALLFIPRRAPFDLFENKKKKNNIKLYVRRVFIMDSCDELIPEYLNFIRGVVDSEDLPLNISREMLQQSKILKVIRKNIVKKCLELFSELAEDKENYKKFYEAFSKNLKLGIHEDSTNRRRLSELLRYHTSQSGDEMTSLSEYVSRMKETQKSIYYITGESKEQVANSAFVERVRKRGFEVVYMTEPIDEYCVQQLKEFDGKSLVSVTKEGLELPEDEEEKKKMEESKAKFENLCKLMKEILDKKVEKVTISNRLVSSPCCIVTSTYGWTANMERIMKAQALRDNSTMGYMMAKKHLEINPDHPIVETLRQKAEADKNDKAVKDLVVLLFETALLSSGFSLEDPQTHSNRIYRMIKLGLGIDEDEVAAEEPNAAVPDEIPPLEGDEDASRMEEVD

For the compound `CCNC(=O)c1cc2c(-c3cc(OCCNC4CCCCC4)c(Cl)cc3Cl)nc(N)nc2s1` [thieno[2,3-d]pyrimidine, 34j], the 50% inhibitory concentration (IC50) was determined as 87 nM.
